Experiments:
FLT3 = molecular target: T1, FLT3 (Homo sapiens, UniProt P36888); assay: TR-FRET kinase activity assay, FLT3; format: biochemical; conditions: ATP at Km, 60 minutes
T1 sequence (P36888 27-993): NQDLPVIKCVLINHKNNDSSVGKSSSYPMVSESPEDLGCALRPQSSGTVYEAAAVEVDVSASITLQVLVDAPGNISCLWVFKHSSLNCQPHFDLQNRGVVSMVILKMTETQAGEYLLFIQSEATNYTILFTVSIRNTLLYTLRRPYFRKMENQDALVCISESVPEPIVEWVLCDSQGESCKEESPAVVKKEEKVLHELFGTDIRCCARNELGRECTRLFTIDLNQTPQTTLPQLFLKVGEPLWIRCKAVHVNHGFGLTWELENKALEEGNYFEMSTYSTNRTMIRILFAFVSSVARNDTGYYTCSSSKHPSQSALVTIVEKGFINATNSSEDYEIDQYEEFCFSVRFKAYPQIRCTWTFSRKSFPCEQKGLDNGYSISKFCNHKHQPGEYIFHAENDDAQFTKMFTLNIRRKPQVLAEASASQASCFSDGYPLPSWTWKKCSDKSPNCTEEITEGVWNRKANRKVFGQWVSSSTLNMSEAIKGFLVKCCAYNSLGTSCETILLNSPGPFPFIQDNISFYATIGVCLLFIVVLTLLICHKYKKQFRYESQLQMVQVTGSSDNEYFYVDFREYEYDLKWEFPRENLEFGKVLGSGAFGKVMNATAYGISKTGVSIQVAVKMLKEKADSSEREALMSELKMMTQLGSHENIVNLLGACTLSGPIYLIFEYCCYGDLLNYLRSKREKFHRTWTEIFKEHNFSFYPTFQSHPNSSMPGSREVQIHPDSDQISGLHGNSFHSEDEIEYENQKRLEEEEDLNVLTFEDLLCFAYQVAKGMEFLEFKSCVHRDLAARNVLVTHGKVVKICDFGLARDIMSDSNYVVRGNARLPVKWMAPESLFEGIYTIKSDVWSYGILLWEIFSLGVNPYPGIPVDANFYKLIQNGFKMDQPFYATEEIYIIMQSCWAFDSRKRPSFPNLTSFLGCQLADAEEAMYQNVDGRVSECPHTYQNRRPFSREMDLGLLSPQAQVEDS
How it was run: (§1)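 Enzyme, fluorescent peptide substrate and compound were mixed, and the reaction was started with ATP at each kinase's Km, in 50 mM HEPES pH 7.5, 10 mM MgCl2, 1 mM EGTA, 0.01% Brij 35, 1 mM DTT at RT. After 60 minutes EDTA quench, Eu-labelled phospho-specific antibody was added for 30 minutes, and IC50 was derived from TR-FRET signal loss.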

AXL = molecular target: T2, AXL (Homo sapiens, UniProt P30530); assay: TR-FRET kinase activity assay, AXL; format: biochemical; conditions: ATP at Km, 60 minutes
T2 sequence (P30530 26-894): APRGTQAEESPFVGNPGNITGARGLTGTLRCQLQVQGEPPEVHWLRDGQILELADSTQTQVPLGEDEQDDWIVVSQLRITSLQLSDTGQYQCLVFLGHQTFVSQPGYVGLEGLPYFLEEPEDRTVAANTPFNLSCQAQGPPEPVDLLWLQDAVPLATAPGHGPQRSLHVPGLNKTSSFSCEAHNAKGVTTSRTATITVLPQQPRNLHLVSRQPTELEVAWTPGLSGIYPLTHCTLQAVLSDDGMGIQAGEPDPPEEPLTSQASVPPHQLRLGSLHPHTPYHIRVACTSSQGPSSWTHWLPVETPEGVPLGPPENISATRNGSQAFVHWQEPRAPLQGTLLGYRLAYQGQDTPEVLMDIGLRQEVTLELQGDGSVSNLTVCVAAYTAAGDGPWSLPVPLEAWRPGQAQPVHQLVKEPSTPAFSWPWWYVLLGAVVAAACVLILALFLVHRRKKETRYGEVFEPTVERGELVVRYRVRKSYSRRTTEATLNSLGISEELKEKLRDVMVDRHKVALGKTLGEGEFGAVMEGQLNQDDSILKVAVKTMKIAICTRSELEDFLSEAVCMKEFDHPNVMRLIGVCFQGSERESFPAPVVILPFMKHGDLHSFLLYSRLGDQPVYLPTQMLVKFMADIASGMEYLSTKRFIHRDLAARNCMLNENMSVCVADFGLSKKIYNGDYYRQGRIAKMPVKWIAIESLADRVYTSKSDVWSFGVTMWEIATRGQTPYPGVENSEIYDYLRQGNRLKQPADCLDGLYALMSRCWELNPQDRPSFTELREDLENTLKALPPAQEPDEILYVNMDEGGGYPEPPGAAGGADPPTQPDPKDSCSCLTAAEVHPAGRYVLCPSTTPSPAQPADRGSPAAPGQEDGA
How it was run: as §1

Compound	IC50 (FLT3) [nM]	IC50 (AXL) [nM]
CC(Nc1ncc2c(-c3ccc(CN4CCN(C)CC4)cc3)cc([C@H]3CC[C@H](O)CC3)n2n1)C(F)F (mixture of isomers) [Compound 148]	100 to 1000	≤ 100
CCCCC[C@H](C)Nc1ncc2c(-c3ccc(S(=O)(=O)N4CCOCC4)cc3)cc([C@H]3CC[C@H](O)CC3)n2n1 [Compound 102, (1S,4r)-4-(2-((S)-heptan-2-ylamino)-5-(4-(morpholinosulfonyl)phenyl)pyrrolo[2,1-f][1,2,4]triazin-7-yl)cyclohexanol]	100 to 1000	100 to 1000
COC[C@H](C)Nc1ncc2c(-c3ccc(C(=O)N4CCN(C)CC4)cc3)cc([C@H]3CC[C@H](O)CC3)n2n1 [Compound 144]	100 to 1000	≤ 100
CC(CC#N)Nc1ncc2c(-c3ccc(CN4CCN(C)CC4)cc3)cc(C3CCC(O)CC3)n2n1 (stereo not drawn) [Compound 145]	≤ 100	≤ 100
COC[C@H](C)Nc1ncc2c(-c3ccnc(C)c3)cc([C@H]3CC[C@H](O)CC3)n2n1 [Compound 146]	1000 to 10000	100 to 1000
CNC(=O)c1ccc(-c2cc([C@H]3CC[C@H](O)CC3)n3nc(N[C@@H](C)COC)ncc23)cn1 [Compound 147]	1000 to 10000	100 to 1000
COCC1(Nc2ncc3c(-c4ccc(CN5CCN(C)CC5)cc4)cc(C4CCC(O)CC4)n3n2)CC1 (stereo not drawn) [Compound 149]	100 to 1000	100 to 1000
COC[C@H](C)Nc1ncc2c(-c3ccc(CN4CCN(C(C)=O)CC4)cc3)cc([C@H]3CC[C@H](O)CC3)n2n1 [Compound 150]	100 to 1000	≤ 100
COC[C@H](C)Nc1ncc2c(-c3cnn(C4CCOCC4)c3)cc([C@H]3CC[C@H](O)CC3)n2n1 [Compound 151]	100 to 1000	100 to 1000
COC[C@H](C)Nc1ncc2c(-c3cnn(C)c3)cc([C@H]3CC[C@H](O)CC3)n2n1 [Compound 152]	100 to 1000	≤ 100
COC[C@H](C)Nc1ncc2c(-c3cnn(CCN4CCOCC4)c3)cc([C@H]3CC[C@H](O)CC3)n2n1 [Compound 153]	1000 to 10000	100 to 1000
COC[C@H](C)Nc1ncc2c(-c3ccc(CN4CCN(c5nccc(C)n5)CC4)cc3)cc([C@H]3CC[C@H](O)CC3)n2n1 [Compound 154, (trans)-4-(2-(((S)-1-methoxypropan-2-yl)amino)-5-(4-((4-(4-methylpyrimidin-2-yl)piperazin-1-yl)methyl)phenyl)pyrrolo[2,1-f][1,2,4]triazin-7-yl)cyclohexanol]	100 to 1000	≤ 100

Other lines, results leading:

IC50 (FLT3) [nM]	IC50 (AXL) [nM]	Compound
100 to 1000	100 to 1000	COCC(C)Nc1ncc2c(-c3ccc(C(C)N4CCOCC4)cc3)cc(C3CCC(O)CC3)n2n1 (mixture of isomers) [Compound 180]
100 to 1000	≤ 100	COC[C@H](C)Nc1ncc2c(-c3ccc(CN4CCN(C)CC4)cc3)cc([C@H]3CC[C@@H](O)CC3)n2n1 [Compound 155]
100 to 1000	≤ 100	COC[C@H](C)Nc1ncc2c(-c3ccc([C@@H](C)N4CCOCC4)cc3)cc([C@H]3CC[C@H](O)CC3)n2n1 [Compound 156]
≤ 100	≤ 100	COC[C@H](C)Nc1ncc2c(-c3ccc([C@H](C)N4CCOCC4)cc3)cc([C@H]3CC[C@H](O)CC3)n2n1 [Compound 157]
100 to 1000	≤ 100	COCC(C)Nc1ncc2c(-c3cccc(C(C)N4CCCC4)c3)cc(C3CCC(O)CC3)n2n1 (stereo not drawn) [Compound 158]
100 to 1000	≤ 100	CCOC(=O)Cn1cc(-c2cc([C@H]3CC[C@H](O)CC3)n3nc(N[C@@H](C)COC)ncc23)cn1 [Compound 159]
1000 to 10000	≤ 100	COC[C@H](C)Nc1ncc2c(-c3cnn(CC(=O)O)c3)cc([C@H]3CC[C@H](O)CC3)n2n1 [Compound 160]
≤ 100	100 to 1000	COCCC(C)Nc1ncc2c(-c3ccc(CN4CCCC4)cc3)cc(C3CCC(O)CC3)n2n1 (stereo not drawn) [Compound 161]
100 to 1000	≤ 100	COC[C@H](C)Nc1ncc2c(-c3cnn(CC(=O)N4CCOCC4)c3)cc([C@H]3CC[C@H](O)CC3)n2n1 [Compound 162]

Reference: patent US11040981B2, “Pyrrolotriazine compounds and methods of inhibiting TAM kinases” (Syros Pharmaceuticals, Inc., priority 2017, dated 2021)
